Experimental data as given in US12023345B2, “Compositions and methods for treating lysosomal disorders” (RUSH UNIVERSITY MEDICAL CENTER, priority 2014, dated 2024).

Legend:
Assay type in all cases: cell-based
[1] = tested on: Tfeb promoter (pTFEB-Luc); experiment: Tfeb promoter-driven luciferase reporter activity in mouse primary astrocytes; settings: p(WT)Tfeb-Luc, different doses of aspirin, 4 h
Description: Construction of Mouse Tfeb Promoter-driven Reporter Construct: Mouse genomic DNA isolated from primary mouse astrocytes was used as the template during PCR. The 5′ flanking sequence of the mouse TFEB (−916/+61) gene was isolated by PCR. Primers were designed from gene bank sequences. Tfeb: sense: 5′- acgcgt CCAGGAGCCAGGGACGGGGTACATCTC -3′ (SEQ ID NO.: 11); antisense: 5′- agatct AAGGAGAAACTGAGTCCGGGCAGAAGG -3′ (SEQ ID NO.: 12). The sense primer was tagged with an Mlu1 restriction enzyme site while the antisense primer was tagged with Bgl II. The PCR was performed using an Advantage-2 PCR kit (Clontech) according to the manufacturer's instruction. The resulting fragments were gel purified and ligated into the PGEM-TEasy vector (Promega). These fragments were further subcloned into the PGL-3 Enhancer vector after digestion with corresponding restriction enzymes and verification by sequencing ACGT Inc. DNA Sequencing Services. […]
Assay of Tfeb Promoter-driven Reporter Activity: Cells plated at 50-60% confluence in 12-well plates were cotransfected with 0.25 μg of pTFEB(WT)-Luc, pTFEB(Mu)-Luc and using Lipofectamine Plus (Invitrogen). […] Firefly luciferase activities were analyzed in cell extracts using the Luciferase Assay System kit (Promega) in a TD-20/20 Luminometer (Turner Designs) as described earlier (33, 34).

Tfeb [2] = experiment: TFEB immunocytochemistry in mouse primary astrocytes and neurons; settings: 5 μM aspirin, 12 h
Protocol: Isolation of Primary Mouse Astroglia: Astroglia were isolated from mixed glial cultures as described (24, 25) according to the procedure of Giulian and Baker (26). Briefly, on day 9, the mixed glial cultures were washed three times with Dulbecco's modified Eagle's medium/F-12 and subjected to shaking at 240 rpm for 2 h at 37° C. on a rotary shaker to remove microglia. After 2 days, the shaking was repeated for 24 h for the removal of oligodendroglia and to ensure the complete removal of all nonastroglial cells. The attached cells were seeded onto new plates for further studies.
Isolation of Primary Mouse Neurons: Fetal (E18-E16) mouse neurons were prepared as previously described (27) with modifications. Whole brains were removed and the cells were washed by centrifugation three times at 1200 rpm for 10 min, the pellet dissociated and the cells plated at 10% confluence in 8-well chamber slides pre-treated for >2 hr with Poly-D-Lysine (Sigma, St. Louis, MO). After 4 min, the non-adherent cell suspension was aspirated and […] complete Neurobasal media (Invitrogen) supplemented with 2% B27 was added to each well. The cells were incubated for 4 days prior to experimentation. […] The cells were stimulated with gemfibrozil in Neurobasal media supplemented with 2% B27 minus antioxidants (Invitrogen) for 24 hr prior to methanol fixation and immunostaining.
Immunostaining of Cells: Immunocytochemistry was performed as described earlier (29). Briefly, 8 well chamber slides containing mouse primary astrocytes, mouse neurons were cultured to 70-80% confluence were fixed with chilled Methanol (Fisher Scientific, Waltham, MA) overnight, followed by two brief rinses with filtered PBS. […] The samples were run in an EtOH and Xylene (Fisher) gradient, mounted, and observed under Olympus BX41 fluorescence microscope.

Tfeb [3] = experiment: TFEB protein by immunoblot in mouse primary astrocytes; settings: aspirin 2 and 5 μM, 12 h, serum-free
Protocol: Isolation of Primary Mouse Astroglia: Astroglia were isolated from mixed glial cultures as described (24, 25) according to the procedure of Giulian and Baker (26). Briefly, on day 9, the mixed glial cultures were washed three times with Dulbecco's modified Eagle's medium/F-12 and subjected to shaking at 240 rpm for 2 h at 37° C. on a rotary shaker to remove microglia. After 2 days, the shaking was repeated for 24 h for the removal of oligodendroglia and to ensure the complete removal of all nonastroglial cells. The attached cells were seeded onto new plates for further studies. Immunoblotting: Western blotting was conducted as described earlier (31, 32) with modifications. Briefly, cells were scraped in 1× RIPA buffer, protein was measured using Bradford reagent and sodium dodecyl sulfate (SDS) buffer was added and electrophoresed on NuPAGE® Novex® 4-12% Bis-Tris gels (Invitrogen) and proteins transferred onto a nitrocellulose membrane (Bio-Rad) using the Thermo-Pierce Fast Semi-Dry Blotter. The membrane was then washed for 15 min in TBS plus Tween 20 (TBST) and blocked for 1 hr in TBST containing BSA. […] Densitometric Analysis: Protein blots were analyzed using ImageJ (NIH, Bethesda, Md.) and bands were normalized to their respective β-actin loading controls. […]

CC(=O)Oc1ccccc1C(=O)O [aspirin]
Tfeb promoter driven luciferase activity [1]: induced Tfeb promoter driven luciferase activity | TFEB expression (immunofluorescence) (Tfeb [2]; PPARα (−/−) astrocytes): not PPARα (−/−) | TFEB expression (immunofluorescence) (Tfeb [2]; PPARβ (−/−) astrocytes): induced the expression of TFEB | TFEB expression (immunofluorescence) (Tfeb [2]; WT astrocytes): induced the expression of TFEB | TFEB protein level (Western blot) (Tfeb [3]): able to increase the protein level of TFEB
